Values after ≈ are worked out from the molar mass of the structure shown.

For one compound, MIC results are on record in patent US4482565A, “β-Lactam-containing antibacterial agents and β-lactamase inhibitors” (Farmitalia Carlo Erba S.p.A., priority 1981, dated 1984).

Common to all, as to type: cell-based
For experiment [1], the system named is Staphylococcus aureus 209P. Briefly: in vitro antibacterial activity (MIC). The note with it: collection strain, read-out: MIC (minimal inhibitory concentration).
In experiment [2] the test system is Staphylococcus aureus 153. Put plainly: in vitro antibacterial activity (MIC). The note with it: lactamase producer, read-out: MIC (minimal inhibitory concentration).
The test system of experiment [3] is Staphylococcus aureus Smith. Put plainly: in vitro antibacterial activity (MIC). The note with it: collection strain, read-out: MIC (minimal inhibitory concentration).
Experiment [4] relates to Streptococcus pyogenes. Briefly: in vitro antibacterial activity (MIC). As to conditions: in vitro, read-out: MIC (minimal inhibitory concentration).
In experiment [5] the test system is Escherichia coli B. Put plainly: in vitro antibacterial activity (MIC). The note with it: in vitro; Escherichia coli B; collection strain; read-out: MIC (minimal inhibitory concentration).
The test system of experiment [6] is Pseudomonas aeruginosa. Put plainly: in vitro antibacterial activity (MIC). As to conditions: in vitro, read-out: MIC (minimal inhibitory concentration).
The test system of experiment [7] is Salmonella typhimurium. Briefly: in vitro antibacterial activity (MIC). As to conditions: Salmonella enterica, Salmonella typhimurium (first listing), read-out: MIC (minimal inhibitory concentration).
Experiment [8] concerns Escherichia coli B Cef R. Briefly: in vitro antibacterial activity (MIC). The note with it: read-out: MIC (minimal inhibitory concentration).
For experiment [9], the system named is Escherichia coli RGN 238. Briefly: in vitro antibacterial activity (MIC). As to conditions: RGN238, lactamase producer, read-out: MIC (minimal inhibitory concentration).
In experiment [10] the test system is Escherichia coli P 453. Briefly: in vitro antibacterial activity (MIC). As to conditions: P453; in vitro; Escherichia coli P 453; lactamase producer; read-out: MIC (minimal inhibitory concentration).
Experiment [11] deals with Escherichia coli R 997. Briefly: in vitro antibacterial activity (MIC). As to conditions: R997, read-out: MIC (minimal inhibitory concentration).
For experiment [12], the system named is Escherichia coli R 57 B. Put plainly: in vitro antibacterial activity (MIC). The note with it: R57B; in vitro; Escherichia coli R 57 B; lactamase producer; read-out: MIC (minimal inhibitory concentration).
Experiment [13] relates to Escherichia coli RP 1. Put plainly: in vitro antibacterial activity (MIC). As to conditions: RP1, read-out: MIC (minimal inhibitory concentration).
Experiment [14] has as its system Escherichia coli R 46. Briefly: in vitro antibacterial activity (MIC). As to conditions: R46; in vitro; Escherichia coli R 46; lactamase producer; read-out: MIC (minimal inhibitory concentration).
Experiment [15] has as its system Escherichia coli R 6 K. Put plainly: in vitro antibacterial activity (MIC). The note with it: R6K, read-out: MIC (minimal inhibitory concentration).
Experiment [16] deals with Pseudomonas aeruginosa FI. Briefly: in vitro antibacterial activity (MIC). The note with it: collection strain, read-out: MIC (minimal inhibitory concentration).
Experiment [17] deals with Pseudomonas aeruginosa ATCC 2598. Put plainly: in vitro antibacterial activity (MIC). As to conditions: ATCC2598, collection strain, read-out: MIC (minimal inhibitory concentration).
For experiment [18], the system named is Klebsiella aerogenes ATCC 1082 E. Briefly: in vitro antibacterial activity (MIC). The note with it: ATCC1082; in vitro; Klebsiella aerogenes ATCC 1082 E; lactamase producer; read-out: MIC (minimal inhibitory concentration).
Experiment [19] deals with Klebsiella pneumoniae ATCC 10031. Put plainly: in vitro antibacterial activity (MIC), second listing of the strain. The note with it: ATCC10031, collection strain (second listing), read-out: MIC (minimal inhibitory concentration).
For experiment [20], the system named is Enterobacter cloacae P 99. Briefly: in vitro antibacterial activity (MIC). As to conditions: P99, read-out: MIC (minimal inhibitory concentration).
Experiment [21] has as its system Enterobacter cloacae 214. Briefly: in vitro antibacterial activity (MIC). The note with it: lactamase producer, read-out: MIC (minimal inhibitory concentration).
Experiment [22] has as its system Salmonella abortivoequina. Briefly: in vitro antibacterial activity (MIC). The note with it: collection strain, read-out: MIC (minimal inhibitory concentration).
The subject of experiment [23] is Salmonella typhimurium. Put plainly: in vitro antibacterial activity (MIC), collection strain. As to conditions: Salmonella enterica; in vitro; Salmonella Typhimurium; collection strain (second listing); read-out: MIC (minimal inhibitory concentration).
For experiment [24], the system named is Proteus mirabilis. The description is as above. As to conditions: in vitro, collection strain, read-out: MIC (minimal inhibitory concentration).

Turning to `CC(=O)OCC1=C(C(=O)O)N2C(=O)C(C(C)O)[C@H]2S1` (stereo partly drawn) [Example 387, (5R)-2-acetoxymethyl-6-(1-hydroxyethyl)-2-penem-3-carboxylic acid], the MIC in [1] is 0.095 µg/mL (≈ 0.331 µM); in [2], 0.045 µg/mL (≈ 0.157 µM); in experiment [3] it was 0.045 µg/mL (≈ 0.157 µM); in experiment [4], 0.19 µg/mL (≈ 0.661 µM); in experiment [5], 0.78 µg/mL (≈ 2.71 µM); in [6], 1.56 µg/mL (≈ 5.43 µM). Further, the MIC in experiment [7] is 0.39 µg/mL (≈ 1.36 µM); in [8], 25 µg/mL (≈ 87 µM); in experiment [9] it was 0.78 µg/mL (≈ 2.71 µM); in [10], 0.78 µg/mL (≈ 2.71 µM); in [11] it was 0.78 µg/mL (≈ 2.71 µM); in [12] it was 0.78 µg/mL (≈ 2.71 µM). In addition, the MIC in [13] was 0.39 µg/mL (≈ 1.36 µM); in [14], 0.78 µg/mL (≈ 2.71 µM); in experiment [15], 0.78 µg/mL (≈ 2.71 µM); in experiment [16] it was 1.56 µg/mL (≈ 5.43 µM); in experiment [17], over 25 µg/mL; in experiment [18] it was 1.56 µg/mL (≈ 5.43 µM). Moreover, the MIC in experiment [19] is 0.78 µg/mL (≈ 2.71 µM); in [20], 3.12 µg/mL (≈ 10.9 µM); in experiment [21] it was 12.5 µg/mL (≈ 43.5 µM); in experiment [22], 0.19 µg/mL (≈ 0.661 µM); in experiment [23], 0.39 µg/mL (≈ 1.36 µM); in experiment [24], 0.39 µg/mL (≈ 1.36 µM).
